Legend:
[1] = molecular target: T1, Solute carrier organic anion transporter family member 1B1 (Homo sapiens, UniProt Q9Y6L6); experiment: TP_TRANSPORTER: cell accumulation in OATP2-expressing HEK293 cells; type: functional, cell-based
T1 sequence (Q9Y6L6 whole entry): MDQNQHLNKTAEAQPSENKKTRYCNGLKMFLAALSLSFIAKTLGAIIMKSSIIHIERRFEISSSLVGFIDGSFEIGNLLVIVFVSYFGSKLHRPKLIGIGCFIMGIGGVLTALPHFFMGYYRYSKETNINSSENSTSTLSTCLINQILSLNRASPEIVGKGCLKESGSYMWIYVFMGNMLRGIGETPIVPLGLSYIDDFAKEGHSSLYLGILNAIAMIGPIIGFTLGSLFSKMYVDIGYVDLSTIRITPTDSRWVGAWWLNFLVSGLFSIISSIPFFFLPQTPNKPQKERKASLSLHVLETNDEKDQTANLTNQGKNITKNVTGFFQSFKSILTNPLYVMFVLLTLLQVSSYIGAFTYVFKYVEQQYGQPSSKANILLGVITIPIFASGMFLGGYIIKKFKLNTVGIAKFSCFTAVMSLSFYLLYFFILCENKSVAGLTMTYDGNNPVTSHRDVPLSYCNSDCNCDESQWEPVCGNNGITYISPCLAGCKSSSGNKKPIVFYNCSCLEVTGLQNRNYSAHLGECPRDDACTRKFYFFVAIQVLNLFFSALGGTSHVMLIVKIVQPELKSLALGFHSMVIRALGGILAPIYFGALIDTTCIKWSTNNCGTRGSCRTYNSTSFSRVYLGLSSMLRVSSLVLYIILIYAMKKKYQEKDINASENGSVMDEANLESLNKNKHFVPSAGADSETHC

[2] = molecular target: T2, Solute carrier organic anion transporter family member 1B3 (Homo sapiens, UniProt Q9NPD5); experiment: TP_TRANSPORTER: cell accumulation in OATP8-expressing HEK293 cells; type: functional, cell-based
T2 sequence (Q9NPD5 whole entry): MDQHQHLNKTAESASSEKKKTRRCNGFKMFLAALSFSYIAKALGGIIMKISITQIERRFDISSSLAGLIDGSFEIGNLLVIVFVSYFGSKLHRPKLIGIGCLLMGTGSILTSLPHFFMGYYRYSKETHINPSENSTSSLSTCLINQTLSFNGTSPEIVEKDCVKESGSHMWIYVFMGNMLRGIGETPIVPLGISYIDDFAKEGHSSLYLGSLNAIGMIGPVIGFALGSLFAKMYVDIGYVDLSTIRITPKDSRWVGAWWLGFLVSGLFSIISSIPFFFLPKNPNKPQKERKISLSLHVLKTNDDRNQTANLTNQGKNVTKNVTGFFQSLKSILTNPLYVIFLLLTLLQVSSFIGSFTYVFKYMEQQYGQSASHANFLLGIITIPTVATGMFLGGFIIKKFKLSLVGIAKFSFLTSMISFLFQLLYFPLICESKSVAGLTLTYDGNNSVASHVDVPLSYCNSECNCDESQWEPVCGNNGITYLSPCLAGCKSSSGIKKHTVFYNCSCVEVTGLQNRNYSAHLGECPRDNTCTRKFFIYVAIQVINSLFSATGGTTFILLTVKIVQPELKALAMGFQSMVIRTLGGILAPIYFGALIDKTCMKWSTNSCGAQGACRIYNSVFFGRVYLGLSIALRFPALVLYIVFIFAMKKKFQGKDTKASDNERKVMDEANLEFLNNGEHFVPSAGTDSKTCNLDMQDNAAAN

| SMILES | Activity [1] | Activity [2] |
| --- | --- | --- |
| CSCC[C@H](NC(=O)[C@H](Cc1ccc(OS(=O)(=O)O)cc1)NC(=O)[C@@H](N)CC(=O)O)C(=O)NCC(=O)N[C@@H](Cc1c[nH]c2ccccc12)C(=O)N[C@@H](CCSC)C(=O)N[C@@H](CC(=O)O)C(=O)N[C@@H](Cc1ccccc1)C(N)=O [SINCALIDE] | substrate [] | substrate [] |
| C[C@]12CC[C@@H]3c4ccc(O)cc4CC[C@H]3[C@@H]1CC[C@@H]2O[C@@H]1O[C@H](C(=O)O)[C@@H](O)[C@H](O)[C@H]1O [ESTRADIOL 17B GLUCURONIDE] | substrate [] | substrate [] |
| O=C(O)C[C@H](O)C[C@H](O)/C=C/c1c(C2CC2)nc2ccccc2c1-c1ccc(F)cc1 [PITAVASTATIN] | substrate [] | substrate [] |
| C[C@]12CC[C@@H]3c4ccc(OS(=O)(=O)O)cc4CC[C@H]3[C@@H]1CCC2=O [ESTRONE SULFURIC ACID] | substrate [] | substrate [] |

Source: ChEMBL document CHEMBL2073972, “Contribution of OATP2 (OATP1B1) and OATP8 (OATP1B3) to the hepatic uptake of pitavastatin in humans” (J Pharmacol Exp Ther, 2004)
